What was measured:
barnyardgrass = experiment: Test A pre-/postemergence herbicide test; format: in vivo, Echinochloa crus-galli
Summary of the method: (§1)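 Both application timings were run together: directed soil spray over freshly planted seeds in sandy loam, and runoff spray onto 2–10 cm seedlings. Evaluation after ~10 days in greenhouse used a 0–100 visual scale versus untreated controls.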

giant foxtail [1] = experiment: Test A pre-/postemergence herbicide test; format: in vivo, Setaria faberi
Summary of the method: as §1

redroot pigweed = experiment: Test A pre-/postemergence herbicide test; format: in vivo, Amaranthus retroflexus
Summary of the method: as §1

velvetleaf = experiment: Test A pre-/postemergence herbicide test; format: in vivo, Abutilon theophrasti
Summary of the method: as §1

Surinam grass = experiment: Test C pre-/postemergence herbicide test; format: in vivo, Urochloa decumbens; conditions: for Plant response rating, Surinam Grass: preemergence; for Surinam Grass plant response rating: Preemergence, 500 g ai/ha, scale 0 to 100, 0 no effect, 100 complete control
Summary of the method: (§2)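 Emerged plants at the 1- to 4-leaf stage (2–18 cm), or freshly planted seeds, received test chemicals in a non-phytotoxic solvent mixture with surfactant. Response was visually scored against controls after 12 to 14 days in the greenhouse, on a 0 (no effect) to 100 (complete control) scale.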

cocklebur = experiment: Test C pre-/postemergence herbicide test; format: in vivo, Xanthium strumarium; conditions: for Plant response rating, Cocklebur: preemergence; for Cocklebur plant response rating: Preemergence, 500 g ai/ha, scale 0 to 100, 0 no effect, 100 complete control
Summary of the method: as §2

giant foxtail [2] = experiment: Test C pre-/postemergence herbicide test; format: in vivo, Setaria faberi; conditions: for Plant response rating, Foxtail, Giant: preemergence; for Foxtail, Giant plant response rating: Preemergence, 500 g ai/ha, scale 0 to 100, 0 no effect, 100 complete control
Summary of the method: as §2

johnsongrass = experiment: Test C pre-/postemergence herbicide test; format: in vivo, Sorghum halepense; conditions: for Plant response rating, Johnsongrass: preemergence; for Johnsongrass plant response rating: Preemergence, 500 g ai/ha, scale 0 to 100, 0 no effect, 100 complete control
Summary of the method: as §2

morningglory = experiment: Test C pre-/postemergence herbicide test; format: in vivo, Ipomoea coccinea; set-up: key to Plant response rating, Morningglory: 0 = no effect, 100 = complete control; conditions: for Plant response rating, Morningglory: preemergence; for Morningglory plant response rating: Preemergence, 500 g ai/ha, scale 0 to 100, 0 no effect, 100 complete control
Summary of the method: as §2

eastern black nightshade = experiment: Test C pre-/postemergence herbicide test; format: in vivo, Solanum ptycanthum; conditions: for Plant response rating, Nightshade: preemergence; for Nightshade plant response rating: Preemergence, 500 g ai/ha, scale 0 to 100, 0 no effect, 100 complete control
Summary of the method: as §2

yellow nutsedge = experiment: Test C pre-/postemergence herbicide test; format: in vivo, Cyperus esculentus; conditions: for Plant response rating, Nutsedge, Yellow: preemergence; for Nutsedge, Yellow plant response rating: Preemergence, 500 g ai/ha, scale 0 to 100, 0 no effect, 100 complete control
Summary of the method: as §2

[3] = Postemergence, 500 g ai/ha, 0 to 100 scale, 0 no effect, 100 complete control
[4] = Postemergence, 2000 g ai/ha, 0 to 100 scale, 0 no effect, 100 complete control
[5] = Preemergence, 500 g ai/ha, visual rating, 0 to 100 scale (0 no effect, 100 complete control)
[6] = Preemergence, 2000 g ai/ha, visual rating, 0 to 100 scale (0 no effect, 100 complete control)
[7] = preemergence, 500 g ai/ha, visual injury, 0 to 100 scale (0 no effect, 100 complete control)
[8] = 125 g ai/ha, scale 0 (no effect) to 100 (complete control), visual, 12 to 14 days
[9] = 250 g ai/ha, scale 0 to 100 (0 no effect, 100 complete control), visual, 12 to 14 days

SMILES: CCNC(=O)c1cc(C)nc(NC(=O)c2cc(C(C)(C)C)nn2CC)c1 [Compound 149]
- Barnyardgrass plant response rating (barnyardgrass; [3]): 45
- Plant response rating, Barnyardgrass (barnyardgrass; [4]): 65
- Barnyardgrass plant response rating (barnyardgrass; [5]): 70
- Barnyardgrass plant response rating (barnyardgrass; [6]): 90
- Foxtail, Giant plant response rating (giant foxtail [1]; [3]): 40
- Plant response rating, Foxtail, Giant (giant foxtail [1]; [4]): 65
- Foxtail, Giant plant response rating (giant foxtail [1]; [5]): 70
- Foxtail, Giant plant response rating (giant foxtail [1]; [6]): 100
- Pigweed plant response rating (redroot pigweed; [3]): 65
- Plant response rating, Pigweed (redroot pigweed; [4]): 90
- Pigweed plant response rating (redroot pigweed; [6]): 95
- Pigweed plant response rating (redroot pigweed; [7]): 90
- Velvetleaf plant response rating (velvetleaf; [3]): 30
- Plant response rating, Velvetleaf (velvetleaf; [4]): 40
- Velvetleaf plant response rating (velvetleaf; [6]): 25
- Velvetleaf plant response rating (velvetleaf; [7]): 0
- Plant response rating, Surinam Grass (Surinam grass; 62 g ai/ha, scale 0 to 100): 0
- Plant response rating, Surinam Grass (Surinam grass; [8]): 5
- Surinam Grass plant response rating (Surinam grass): 85
- Plant response rating, Cocklebur (cocklebur; 62 g ai/ha, scale 0 to 100): 0
- Plant response rating, Cocklebur (cocklebur; [8]): 0
- Plant response rating, Cocklebur (cocklebur; [9]): 0
- Cocklebur plant response rating (cocklebur): 0
- Plant response rating, Foxtail, Giant (giant foxtail [2]; 62 g ai/ha, scale 0 to 100): 0
- Plant response rating, Foxtail, Giant (giant foxtail [2]; [8]): 50
- Plant response rating, Foxtail, Giant (giant foxtail [2]; [9]): 60
- Foxtail, Giant plant response rating (giant foxtail [2]): 100
- Plant response rating, Johnsongrass (johnsongrass; 62 g ai/ha, scale 0 to 100): 10
- Plant response rating, Johnsongrass (johnsongrass; [8]): 60
- Johnsongrass plant response rating (johnsongrass): 100
- Plant response rating, Morningglory (morningglory; 62 g ai/ha, scale 0 to 100): 0
- Plant response rating, Morningglory (morningglory; [8]): 5
- Morningglory plant response rating (morningglory): 60
- Plant response rating, Nightshade (eastern black nightshade; 62 g ai/ha, scale 0 to 100): 80
- Plant response rating, Nightshade (eastern black nightshade; [8]): 80
- Nightshade plant response rating (eastern black nightshade): 95
- Plant response rating, Nutsedge, Yellow (yellow nutsedge; 62 g ai/ha, scale 0 to 100): 0
- Plant response rating, Nutsedge, Yellow (yellow nutsedge; [8]): 0
- Nutsedge, Yellow plant response rating (yellow nutsedge): 0

SMILES: C=CCNC(=O)c1cccc(NC(=O)c2sc(C(C)(C)C)nc2C)c1 [Compound 202]
- Barnyardgrass plant response rating (barnyardgrass; [3]): 45
- Plant response rating, Barnyardgrass (barnyardgrass; [4]): 80
- Barnyardgrass plant response rating (barnyardgrass; [6]): 80
- Barnyardgrass plant response rating (barnyardgrass; [7]): 45
- Foxtail, Giant plant response rating (giant foxtail [1]; [3]): 30
- Plant response rating, Foxtail, Giant (giant foxtail [1]; [4]): 50
- Foxtail, Giant plant response rating (giant foxtail [1]; [6]): 80
- Foxtail, Giant plant response rating (giant foxtail [1]; [7]): 55
- Pigweed plant response rating (redroot pigweed; [3]): 50
- Plant response rating, Pigweed (redroot pigweed; [4]): 90
- Pigweed plant response rating (redroot pigweed; [6]): 100
- Pigweed plant response rating (redroot pigweed; [7]): 100
- Velvetleaf plant response rating (velvetleaf; [3]): 30
- Plant response rating, Velvetleaf (velvetleaf; [4]): 30
- Velvetleaf plant response rating (velvetleaf; [6]): 85
- Velvetleaf plant response rating (velvetleaf; [7]): 35
- Plant response rating, Surinam Grass (Surinam grass; 62 g ai/ha, scale 0 to 100): 10
- Plant response rating, Surinam Grass (Surinam grass; [8]): 20
- Plant response rating, Surinam Grass (Surinam grass; 250 g ai/ha, scale 0-100): 40
- Surinam Grass plant response rating (Surinam grass): 60
- Plant response rating, Cocklebur (cocklebur; 62 g ai/ha, scale 0 to 100): 0
- Plant response rating, Cocklebur (cocklebur; [8]): 0
- Plant response rating, Cocklebur (cocklebur; 250 g ai/ha, scale 0-100): 10
- Cocklebur plant response rating (cocklebur): 20
- Plant response rating, Foxtail, Giant (giant foxtail [2]; 62 g ai/ha, scale 0 to 100): 0
- Plant response rating, Foxtail, Giant (giant foxtail [2]; [8]): 40
- Plant response rating, Foxtail, Giant (giant foxtail [2]; 250 g ai/ha, scale 0-100): 80
- Foxtail, Giant plant response rating (giant foxtail [2]): 100
- Plant response rating, Johnsongrass (johnsongrass; 62 g ai/ha, scale 0 to 100): 0
- Plant response rating, Johnsongrass (johnsongrass; [8]): 40
- Plant response rating, Johnsongrass (johnsongrass; 250 g ai/ha, scale 0-100): 70
- Johnsongrass plant response rating (johnsongrass): 75
- Plant response rating, Morningglory (morningglory; 62 g ai/ha, scale 0 to 100): 0
- Plant response rating, Morningglory (morningglory; [8]): 55
- Plant response rating, Morningglory (morningglory; 250 g ai/ha, scale 0-100): 80
- Morningglory plant response rating (morningglory): 85
- Plant response rating, Nightshade (eastern black nightshade; 62 g ai/ha, scale 0 to 100): 20
- Plant response rating, Nightshade (eastern black nightshade; [8]): 95
- Plant response rating, Nightshade (eastern black nightshade; 250 g ai/ha, scale 0-100): 100
- Nightshade plant response rating (eastern black nightshade): 100
- Plant response rating, Nutsedge, Yellow (yellow nutsedge; 62 g ai/ha, scale 0 to 100): 0
- Plant response rating, Nutsedge, Yellow (yellow nutsedge; [8]): 0
- Plant response rating, Nutsedge, Yellow (yellow nutsedge; 250 g ai/ha, scale 0-100): 0
- Nutsedge, Yellow plant response rating (yellow nutsedge): 0
